Key:
[1] = target: T1, HSV-1 ribonucleotide reductase (Human herpesvirus 1, UniProt P08543); assay: Inhibition of Herpes Simplex Virus (HSV-1) ribonucleotide reductase; assay type: biochemical; settings: Table IV; assay of example 10
T1 construct: HSV-1 ribonucleotide reductase (partially purified) was obtained from quiescent BHK-21/C13 cells infected with strain F HSV-1 virus; made in house; host or cells: quiescent BHK-21/C13 cells infected with HSV-1 strain F (virus-encoded enzyme, partially purified)
From the text: Inhibition of Herpes Simplex Virus (HSV-1) Ribonucleotide Reductase
• a) Preparation of Enzyme HSV-1 ribonucleotide reductase (partially purified) was obtained from quiescent BHK-21/C13 cells infected with strain F HSV-1 virus at 10 plaque forming units/cell as described by E.A. Cohen et al., J. Gen. Virol., 66, 733 (1985). • b) Assay and Results for Exemplified Peptides By following the procedure described by P. Gaudreau et al., J. Biol, Chem., 262, 12413 (1987), the assay results listed in the following Table I were obtained. The assay result for each exemplified compound of formula 1 is expressed as the concentration of the compound producing 50% of the maximal inhibition (IC50) of enzyme activity. The number of units of the enzyme preparation used in each assay was constant, based on the specific activity of the enzyme preparation. The results are relative to the activity obtained in control experiments without the test compound and represent the mean of four assays that varied less than 10% with each other.

HSV-2 = assay: Inhibition of Herpes Simplex Virus (HSV-2) replication in cell culture; assay type: cell-based; settings: Human alphaherpesvirus 2, Table IV; cell culture assay of example 11; read-out: EC50
Protocol: Inhibition of Herpes Simplex Virus (HSV-2) Replication in Cell Culture
BHK-21/C13 cells (ATCC CCL 10) are incubated for two days in 150 cm^2 T-flasks (1.5 x 10^6 cells/flask) with alpha-MEM medium (Gibco Canada Inc., Burlington, Ontario, Canada) supplemented with 8% (v/v) fetal bovine serum (FBS, Gibco Canada Inc.). The cells are trypsinized and then transferred to fresh media in a 24 well plate to give 2.5 x 10^5 cells in 750 µL of media per well. The cells are incubated at 37° for a period of 6 h to allow them to adhere to the plate. Thereafter, the cells are washed once with 500 µL of alpha-MEM supplemented with 0.5% (v/v) FBS and then incubated with 750 µL of the same media (low serum) for 3 days. After this period of serum starvation, the low serum medium is removed and the cells are incubated in 500 µL of BBMT for 2 to 3 hours. {BBMT medium is described by P. Brazeau et al., Proc. Natl. Acad. Sci. USA, 79, 7909 (1982).} Thereafter, the cells are infected with HSV-2 (multiplicity of infection = 0.02 PFU/cell) in 100 µL of BBMT medium. (Note: The HSV-2 used was strain HG-52, see Y. Langelier and G. Buttin, J. Gen. Virol., 57, 21 (1981); the virus was stored at -80°.) Following 1 h of virus adsorption at 37°, the media is removed and the cells are washed with BBMT (3 X 250 µL). The cells in each well are incubated with or without (control) appropriate concentrations of the test agent dissolved in 200 µL of BBMT medium. After 29 h of incubation at 37°, the infected cells are harvested by first freezing the plate at -80°, followed by thawing. The cells in each well are scraped off the surface of the well with the help of the melting ice fragments. After complete thawing, the cell suspensions are collected and each well is rinsed with 150 µL of BBMT medium. The viral sample (suspension plus washing) is sonicated gently for 4 min at 4°. Cell debris are removed by centrifugation (1000 times gravity for 10 minutes at 4°). The supernatant is collected and stored at -80° until determination of viral titer.
Viral titration was performed by a modification of the colorimetric assay method of M. Langlois et al., Journal of Biological Standardization, 14, 201 (1986).
More specifically, in a similar manner as described above, BHK-21/C13 cells are trypsinized and transferred to fresh media in a 96 well microtiter plate to give 20,000 cells in 100 µL of media per well. The cells in the prepared plate are incubated at 37° for 2 h. During that time, the viral sample is thawed and sonicated gently for 15 seconds, and log dilutions of the sample are prepared (1/5 sequential: 50 µL of the sample plus 200 µL of BBMT medium, sequential dilutions being done with a multichannel pipette.
On completion of the above 2 hour incubation of the BHK-21/C13 cells, the media is replaced with alpha-MEM medium supplemented with 3% (v/v) FBS. The cells are now ready to be infected with the various sample dilutions of virus. Aliquots (50 µL) of the various dilutions are transferred into the appropriate wells of the plate. The resulting infected cells are incubated for 2 days at 37°. Then 50 µL of a 0.15% (v/v) solution of neutral red dye in Hank's Balanced Salt Solution (pH 7.3, Gibco Canada Inc.) is added to each well. The prepared plate is incubated for 45 min at 37°. Medium from each well is then aspirated and the cells are washed once with 200 µL of Hank's Balanced Salt Solution. […]

T1 sequence (P08543 whole entry): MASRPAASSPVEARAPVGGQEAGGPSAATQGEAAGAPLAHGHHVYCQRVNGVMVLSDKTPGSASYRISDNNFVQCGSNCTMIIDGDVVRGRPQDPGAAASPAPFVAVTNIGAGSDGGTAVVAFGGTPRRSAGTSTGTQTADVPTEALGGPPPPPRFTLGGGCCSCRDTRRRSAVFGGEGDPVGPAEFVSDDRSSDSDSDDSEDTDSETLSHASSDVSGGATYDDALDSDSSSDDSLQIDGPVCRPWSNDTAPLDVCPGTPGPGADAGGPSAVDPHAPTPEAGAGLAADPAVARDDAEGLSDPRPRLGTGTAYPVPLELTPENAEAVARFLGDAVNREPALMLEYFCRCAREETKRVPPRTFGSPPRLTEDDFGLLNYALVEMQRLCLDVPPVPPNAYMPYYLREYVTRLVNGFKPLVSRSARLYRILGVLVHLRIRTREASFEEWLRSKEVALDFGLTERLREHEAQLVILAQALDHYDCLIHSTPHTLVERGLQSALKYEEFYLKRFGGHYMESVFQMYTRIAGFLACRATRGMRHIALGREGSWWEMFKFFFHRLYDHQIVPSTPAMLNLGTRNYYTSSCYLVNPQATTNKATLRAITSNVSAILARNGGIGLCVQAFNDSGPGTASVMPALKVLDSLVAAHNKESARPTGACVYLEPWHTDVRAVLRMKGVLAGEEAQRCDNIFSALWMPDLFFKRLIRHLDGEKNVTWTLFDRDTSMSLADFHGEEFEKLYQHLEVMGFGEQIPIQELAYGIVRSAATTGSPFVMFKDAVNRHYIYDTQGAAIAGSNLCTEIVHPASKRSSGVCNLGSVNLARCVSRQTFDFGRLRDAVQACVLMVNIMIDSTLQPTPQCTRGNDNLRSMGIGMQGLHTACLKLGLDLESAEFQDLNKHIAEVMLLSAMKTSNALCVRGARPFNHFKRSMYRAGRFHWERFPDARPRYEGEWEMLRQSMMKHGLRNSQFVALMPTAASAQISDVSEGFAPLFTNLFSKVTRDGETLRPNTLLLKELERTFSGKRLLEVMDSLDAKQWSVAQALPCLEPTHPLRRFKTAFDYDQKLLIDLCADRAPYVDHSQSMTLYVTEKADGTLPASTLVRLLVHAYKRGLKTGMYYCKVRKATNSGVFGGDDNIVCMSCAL

Compound	IC50 [1] [µM]	EC50 (HSV-2) [µM]
CCCC(C)(CCC)NC(=O)N[C@H](C(=O)C[C@@H](CC(=O)C(C)(C)C)C(=O)N[C@H](C(=O)NCC(C)(C)C)C1(C(=O)O)CCCC1)C(C)(C)C [MePr2CNHC(O) / NHCH2CMe3, MePr2CNHC(O)-Tbg-CH2-(R)-CH(CH2C(O)CMe3)C(O)-Asp(cyPn)-NHCH2CMe3]	0.28	26
CCCC(CCC)NC(=O)NC(C(=O)CC(CC(=O)C(C)(C)C)C(=O)NC(C(=O)NC(CC)C(C)(C)C)C1(C(=O)O)CCCC1)C(C)(C)C [Pr2CHNHC(O) / NH-(R)-CH(Et)CMe3, Pr2CHNHC(O)-Tbg-CH2-(R)-CH(CH2C(O)CMe3)C(O)-Asp(cyPn)-NH-(R)-CH(Et)CMe3]	0.34	10
CCCC(CCC)NC(=O)NC(C(=O)CC(CC(=O)C(C)(C)C)C(=O)NC(C(=O)NC(C)CC(C)(C)C)C1(C(=O)O)CCCC1)C(C)(C)C [Pr2CHNHC(O) / NH-(R)-CH(Me)CH2CMe3, Pr2CHNHC(O)-Tbg-CH2-(R)-CH(CH2C(O)CMe3)C(O)-Asp(cyPn)-NH-(R)-CH(Me)CH2CMe3]	0.37	14
CCCC(CCC)NC(=O)NC(C(=O)CC(CC(=O)C(C)(C)C)C(=O)NC(C(=O)NC(C)C(CC)CC)C1(C(=O)O)CCCC1)C(C)(C)C [Pr2CHNHC(O) / NH-(R)-CH(Me)CHEt2, Pr2CHNHC(O)-Tbg-CH2-(R)-CH(CH2C(O)CMe3)C(O)-Asp(cyPn)-NH-(R)-CH(Me)CHEt2]	0.33	16
CCCC(CCC)NC(=O)NC(C(=O)CC(CC(=O)C(C)(C)C)C(=O)NC(C(=O)NC(C)C(C)(C)C)C1(C(=O)O)CCCC1)C(C)(C)C [Pr2CHNHC(O) / NH-(R)-CH(Me)CMe3, Pr2CHNHC(O)-Tbg-CH2-(R)-CH(CH2C(O)CMe3)C(O)-Asp(cyPn)-NH-(R)-CH(Me)CMe3]	0.28	14
CCCC(CCC)NC(=O)NC(C(=O)CC(CC(=O)C(C)(C)C)C(=O)NC(C(=O)NC(CCC)C(C)(C)C)C1(C(=O)O)CCCC1)C(C)(C)C [Pr2CHNHC(O) / NH-(R)-CH(Pr)CMe3, Pr2CHNHC(O)-Tbg-CH2-(R)-CH(CH2C(O)CMe3)C(O)-Asp(cyPn)-NH-(R)-CH(Pr)CMe3]	0.43	15
CCCC(CCC)NC(=O)NC(C(=O)CC(CC(=O)C(C)(C)C)C(=O)NC(C(=O)NC(CO)C(C)(C)C)C1(C(=O)O)CCCC1)C(C)(C)C [Pr2CHNHC(O) / NH-(S)-CH(CMe3)CH2OH, Pr2CHNHC(O)-Tbg-CH2-(R)-CH(CH2C(O)CMe3)C(O)-Asp(cyPn)-NH-(S)-CH(CMe3)CH2OH]	0.23	48
CCCC(CCC)NC(=O)NC(C(=O)CC(CC(=O)C(C)(C)C)C(=O)NC(C(=O)NN(C)C(C)(C)C)C1(C(=O)O)CCCC1)C(C)(C)C [Pr2CHNHC(O) / NH-N(Me)CMe3, Pr2CHNHC(O)-Tbg-CH2-(R)-CH(CH2C(O)CMe3)C(O)-Asp(cyPn)-NH-N(Me)CMe3]	0.27	110
CCCC(CCC)NC(=O)NC(C(=O)CC(CC(=O)C(C)(C)C)C(=O)NC(C(=O)NCC(C)CC)C1(C(=O)O)CCCC1)C(C)(C)C [Pr2CHNHC(O) / NHCH2-(R,S)-CH(Me)Et, Pr2CHNHC(O)-Tbg-CH2-(R)-CH(CH2C(O)CMe3)C(O)-Asp(cyPn)-NHCH2-(R,S)-CH(Me)Et]	0.29	50
CCCC(CCC)NC(=O)NC(C(=O)CC(CC(=O)C(C)(C)C)C(=O)NC(C(=O)NCC1CCCCC1)C1(C(=O)O)CCCC1)C(C)(C)C [Pr2CHNHC(O) / NHCH2-(cyclohexyl), Pr2CHNHC(O)-Tbg-CH2-(R)-CH(CH2C(O)CMe3)C(O)-Asp(cyPn)-NHCH2-(cyclohexyl)]	0.36	47
